These results are taken from PMC8201054, “A Novel Benzopyrane Derivative Targeting Cancer Cell Metabolic and Survival Pathways” (Cancers, 2021).

Assay [1] addresses T1, inositol-3-phosphate synthase (Homo sapiens, UniProt Q9NPH2).
T1 construct: gene ISYNA1
T1 sequence (Q9NPH2 1-558): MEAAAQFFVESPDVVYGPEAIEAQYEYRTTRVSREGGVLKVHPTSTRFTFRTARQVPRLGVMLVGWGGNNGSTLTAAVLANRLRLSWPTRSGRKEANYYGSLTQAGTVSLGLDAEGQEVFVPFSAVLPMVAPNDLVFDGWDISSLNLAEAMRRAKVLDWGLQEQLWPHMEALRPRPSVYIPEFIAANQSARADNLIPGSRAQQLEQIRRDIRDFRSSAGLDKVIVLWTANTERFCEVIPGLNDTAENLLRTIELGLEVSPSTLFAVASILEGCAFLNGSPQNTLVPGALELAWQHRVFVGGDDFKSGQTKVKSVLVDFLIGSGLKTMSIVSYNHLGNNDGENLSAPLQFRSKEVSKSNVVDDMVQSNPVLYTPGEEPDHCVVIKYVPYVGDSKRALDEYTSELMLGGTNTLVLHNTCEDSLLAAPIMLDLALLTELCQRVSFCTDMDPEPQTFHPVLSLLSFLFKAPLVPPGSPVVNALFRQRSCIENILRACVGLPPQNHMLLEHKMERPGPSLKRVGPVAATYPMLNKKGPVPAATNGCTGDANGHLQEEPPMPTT
Briefly: DARTS proteomics in HEK293T lysate ([…]). Format: cell-based.

Assay [2] concerns the target T2, thioredoxin reductase 1 (TrxR) (Homo sapiens, UniProt Q16881).
T2 construct: gene TXNRD1
T2 sequence (Q16881 1-649): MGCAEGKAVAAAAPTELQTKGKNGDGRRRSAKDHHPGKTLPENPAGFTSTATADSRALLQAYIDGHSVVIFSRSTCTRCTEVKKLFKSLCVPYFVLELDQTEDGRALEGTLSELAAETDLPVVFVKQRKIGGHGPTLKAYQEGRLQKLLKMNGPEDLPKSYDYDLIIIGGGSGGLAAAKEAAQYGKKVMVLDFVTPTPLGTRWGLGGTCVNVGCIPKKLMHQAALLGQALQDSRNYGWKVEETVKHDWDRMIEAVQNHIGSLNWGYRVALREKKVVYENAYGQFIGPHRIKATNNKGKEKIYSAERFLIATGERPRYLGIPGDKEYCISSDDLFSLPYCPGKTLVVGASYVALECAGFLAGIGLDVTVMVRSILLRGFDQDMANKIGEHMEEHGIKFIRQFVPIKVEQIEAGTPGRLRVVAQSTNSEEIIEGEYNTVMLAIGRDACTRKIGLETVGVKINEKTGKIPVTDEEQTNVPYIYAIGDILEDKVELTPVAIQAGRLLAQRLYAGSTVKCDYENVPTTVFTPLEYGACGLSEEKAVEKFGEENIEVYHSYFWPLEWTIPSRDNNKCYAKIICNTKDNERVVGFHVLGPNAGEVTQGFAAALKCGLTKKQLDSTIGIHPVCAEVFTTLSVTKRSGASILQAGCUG
Briefly: DARTS proteomics in HEK293T lysate; TrxR activity assay in lysates of treated HCT116 cells. Format: cell-based.

One may read the IC50 as the midpoint of a concentration-inhibition curve. Read a low IC50 as greater potency.

With `CC1(C)[C@H]2COc3ccc4ccccc4c3[C@H]2N=C2SC(c3ccccc3)=C(c3ccccc3)N21` [SIMR1281, (8aS,14aS)-9,9-dimethyl-11,12-diphenyl-8a,14a-dihydro-8H,9H-benzo[5, 6]chromeno[4,3-d]thiazolo[3,2-a]pyrimidine], the “DARTS proteomics in HEK293T lysate (0.01-1 μM)” value in assay [1] is listed as “SIMR1281 has shown a concentration-dependent affinity toward the inositol-3-phosphate synthase enzyme in the DARTS proteomic assay”. The compound also returned an IC50 in assay [2] of 2.42 µM.
